In US5188950A, “Method of preparing HIV protease inhibitors” (Merck & Co., Inc., priority 1992, dated 1993):
Values joined by “and” are separate entries in the source; they are usually repeats but may differ in a detail not shown here. Equal entries are not always repeated.

Columns and labels:
HIV protease = molecular target: T1, HIV protease (Human immunodeficiency virus type 1 group M subtype B, UniProt P12497); assay: Inhibition of microbial expressed viral protease (peptide substrate cleavage, HPLC of products); type: biochemical; details: estimated activities; compounds as isolated from rat liver slices; pH 5.5, 2 hours at 36° C., 283 pM protease
T1 construct: the protease expressed in Escherichia coli; made in house; host or cells: Escherichia coli
Experimental: Inhibition studies of the reaction of the protease expressed in Escherichia coli with a peptide substrate [Val-Ser-Gln-Asn-(betanapthyl)Ala-Pro-Ile-Val, 0.665 mg/mL at the time the reaction is initiated] were carried out. Aliquots of 40 μl of substrate in substrate buffer (60 mM Na acetate, pH 5.5, in 0.117% BSA) were combined with 10 μl aliquots of various concentrations of inhibitor. The reaction was initiated by the addition of 10 μl of 1.7 nM protease in a solution of 0.05M Na acetate, pH 5.5, in 10% glycerol, 1 mM DTT, 1 mM EDTA, and 64 μM octoxynol-9.5 to yield a final concentration of 283 pM protease. Incubation proceeded for 2 hours at 36° C. The reaction was quenched with 75 ul of 5% phosphoric acid. Products of the reaction were separated by HPLC. The extent of inhibition of the reaction was determined from the peak heights of the products.

[1] = Biotransformation of L-689,502 by rat liver slices; type: in vitro ADME; details: for metabolite share of the total metabolites: rat liver slices incubated with L-689,502, pH 7.4, 37° C., % of the total metabolites
Experimental: L-689,502 (5.65 μmole) was incubated at pH 7.4, 37° C., with rat liver slices (1 cm wide, 200-300μ 3.7 g) in 100 ml of Williams' Medium E (composition described in Sigma commercial circular, pages 1-5, herein incorporated by reference for this purpose). A gradual increase in the metabolites in an organic extract of the medium was observed over a period of 5 hours when ~31% of .he drug was metabolized. Three of the major metabolites M1 (6.1% of the total metabolites) and M2 (6.3%) and M4 (12.1%) were characterized by ^1 H-NMR and FAB/Mass spectroscopies. Exact mass measurements, by high resolution FAB/MS, for M1 and M2 gave a molecular ion at m/z 690.375305, which computed to an empirical formula of C39 H52 N3 O8 for the protonated form. The M4 peak was also matched with a synthetic standard by HPLC, MS and NMR.

[2] = Biotransformation of L-689,502 by dog liver slices; type: in vitro ADME; details: dog liver slices incubated with L-689,502; for metabolite share of the total metabolites: % of the total metabolites

Compound: CC(C)(C)OC(=O)N[C@@H](Cc1ccccc1)[C@@H](O)C[C@@H](Cc1ccc(OCCN2CCOCC2)cc1)C(=O)N[C@H]1c2ccccc2C[C@H]1O [L-689,502, N-(cis-2(R)-hydroxy-1(S)-indanyl)-5(S)-(1,1-dimethylethoxycarbonylamino)-4(S)-hydroxy-6-phenyl-2(R)-[(4-(2-(4-morpholinyl)ethoxy)phenyl)methyl]-hexanamide]
- IC50 (HIV protease): 0.93 nM and 0.95 nM
- metabolised at 5 h, 56.5 µM ([1]; over 5 hours, pH 7.4, 37° C., rat liver slices, 5.65 μmole in 100 ml Williams' Medium E, read-out: drug metabolized): ~31%

Compound: CC(C)(C)OC(=O)N[C@@H](Cc1ccccc1)[C@@H](O)C[C@@H](Cc1ccc(OCCN2CCOCC2)cc1)C(=O)N[C@H]1c2ccccc2[C@H](O)[C@H]1O [M1]
- IC50 (HIV protease): 2.7 nM
- metabolite share of the total metabolites [1]: 6.1%
- metabolite share of the total metabolites [2]: 13.1%

Compound: CC(C)(C)OC(=O)N[C@@H](Cc1ccccc1)[C@@H](O)C[C@@H](Cc1ccc(OCCN2CCOCC2)cc1)C(=O)N[C@H]1c2cccc(O)c2C[C@H]1O [M2]
- IC50 (HIV protease): 1.3 nM
- metabolite share of the total metabolites [1]: 6.3%
- metabolite share of the total metabolites [2]: 1.6%

Compound: CC(C)(C)OC(=O)N[C@@H](Cc1ccccc1)[C@@H](O)C[C@@H](Cc1ccc(OCCN2CCOCC2=O)cc1)C(=O)N[C@H]1c2ccccc2C[C@H]1O [M4]
- IC50 (HIV protease): ~0.5 nM
- metabolite share of the total metabolites [1]: 12.1%
- amount of metabolite peak (in words) ([2]; HPLC): a small amount
